# Organism: Rattus norvegicus
# Assay: DrugMatrix - Regimen: Daily Repeat
# Type: toxicity, organism-based, Sprague-Dawley
# Parameters: regimen Daily Repeat, gender Male, age 6-8 weeks
# Conditions: in vivo, po, route oral GAVAGE, vehicle .5 % CMC; for BASOPHIL / EOSINOPHIL / ERYTHROCYTE COUNT / HEMATOCRIT / HEMOGLOBIN / LEUKOCYTE COUNT / LYMPHOCYTE / MEAN CORPUSCULAR HEMOGLOBIN / MEAN CORPUSCULAR HEMOGLOBIN CONCENTRATION / MEAN CORPUSCULAR VOLUME / MONOCYTE / NEUTROPHIL / PLATELET COUNT: tissue Blood; for ALANINE AMINOTRANSFERASE / ALBUMIN / ALKALINE PHOSPHATASE / ASPARTATE AMINOTRANSFERASE / BLOOD UREA NITROGEN / CHOLESTEROL / CREATINE PHOSPHOKINASE / CREATININE / GLUCOSE / PHOSPHORUS / POTASSIUM / SODIUM / TOTAL BILIRUBIN / TOTAL PROTEIN: tissue Plasma
# [1] = 0 mg/kg, 72 h, dose level Control, time 3 day
# [2] = 0 mg/kg, 120 h, dose level Control, time 5 day
# [3] = 45 mg/kg, 72 h, dose level High, time 3 day
# [4] = 45 mg/kg, 120 h, dose level High, time 5 day
# [5] = […], 72 h, dose 1.1 mg/Kg, dose level Low, time 3 day
# [6] = […], 120 h, dose 1.1 mg/Kg, dose level Low, time 5 day
smiles,measurement,setting,value
COc1cc(NC(C)CCCN)c2ncccc2c1 (configuration not stated) [PRIMAQUINE],BASOPHIL,[1],0%
same,EOSINOPHIL,[1],0%
same,ERYTHROCYTE COUNT,[1],6.19 x10E6/uL
same,HEMATOCRIT,[1],36.94%
same,HEMOGLOBIN,[1],14.58 G/DL
same,LEUKOCYTE COUNT,[1],11.54 x10E3/uL
same,LYMPHOCYTE,[1],84.8%
same,MEAN CORPUSCULAR HEMOGLOBIN,[1],23.58 pg
same,MEAN CORPUSCULAR HEMOGLOBIN CONCENTRATION,[1],39.44 G/DL
same,MEAN CORPUSCULAR VOLUME,[1],59.76 fL
same,MONOCYTE,[1],1.4%
same,NEUTROPHIL,[1],13.8%
same,PLATELET COUNT,[1],1068.8 x10E3/uL
same,ALANINE AMINOTRANSFERASE,[1],38.17 u/L
same,ALBUMIN,[1],3.88 G/DL
same,ALKALINE PHOSPHATASE,[1],391.33 u/L
same,ASPARTATE AMINOTRANSFERASE,[1],69.83 u/L
same,BLOOD UREA NITROGEN,[1],15 mg/dL
same,CHOLESTEROL,[1],72.17 mg/dL
same,CREATINE PHOSPHOKINASE,[1],174.33 u/L
same,CREATININE,[1],0.58 mg/dL
same,GLUCOSE,[1],192.67 mg/dL
same,PHOSPHORUS,[1],10.52 mg/dL
same,POTASSIUM,[1],6.8 MEQ/L
same,SODIUM,[1],149.67 MEQ/L
same,TOTAL BILIRUBIN,[1],0.78 mg/dL
same,TOTAL PROTEIN,[1],6.28 G/DL
same,BASOPHIL,[2],0%
same,EOSINOPHIL,[2],0.17%
same,ERYTHROCYTE COUNT,[2],6.72 x10E6/uL
same,HEMATOCRIT,[2],40.02%
same,HEMOGLOBIN,[2],15.83 G/DL
same,LEUKOCYTE COUNT,[2],9.5 x10E3/uL
same,LYMPHOCYTE,[2],87.17%
same,MEAN CORPUSCULAR HEMOGLOBIN,[2],23.57 pg
same,MEAN CORPUSCULAR HEMOGLOBIN CONCENTRATION,[2],39.62 G/DL
same,MEAN CORPUSCULAR VOLUME,[2],59.55 fL
same,MONOCYTE,[2],1.67%
same,NEUTROPHIL,[2],11%
same,PLATELET COUNT,[2],1053.67 x10E3/uL
same,ALANINE AMINOTRANSFERASE,[2],26.33 u/L
same,ALBUMIN,[2],4.02 G/DL
same,ALKALINE PHOSPHATASE,[2],316.67 u/L
same,ASPARTATE AMINOTRANSFERASE,[2],61.33 u/L
same,BLOOD UREA NITROGEN,[2],18.67 mg/dL
same,CHOLESTEROL,[2],65.17 mg/dL
same,CREATINE PHOSPHOKINASE,[2],161.17 u/L
same,CREATININE,[2],0.75 mg/dL
same,GLUCOSE,[2],177.33 mg/dL
same,PHOSPHORUS,[2],9.72 mg/dL
same,POTASSIUM,[2],6.18 MEQ/L
same,SODIUM,[2],150.5 MEQ/L
same,TOTAL BILIRUBIN,[2],0.68 mg/dL
same,TOTAL PROTEIN,[2],6.55 G/DL
same,BASOPHIL,[3],0%
same,EOSINOPHIL,[3],0.33%
same,ERYTHROCYTE COUNT,[3],6.7 x10E6/uL
same,HEMATOCRIT,[3],40.07%
same,HEMOGLOBIN,[3],15.73 G/DL
same,LEUKOCYTE COUNT,[3],10.6 x10E3/uL
same,LYMPHOCYTE,[3],76.67%
same,MEAN CORPUSCULAR HEMOGLOBIN,[3],23.53 pg
same,MEAN CORPUSCULAR HEMOGLOBIN CONCENTRATION,[3],39.3 G/DL
same,MEAN CORPUSCULAR VOLUME,[3],59.87 fL
same,MONOCYTE,[3],2.67%
same,NEUTROPHIL,[3],20.33%
same,PLATELET COUNT,[3],1053 x10E3/uL
same,ALANINE AMINOTRANSFERASE,[3],83.33 u/L
same,ALBUMIN,[3],3.73 G/DL
same,ALKALINE PHOSPHATASE,[3],304.67 u/L
same,ASPARTATE AMINOTRANSFERASE,[3],358.33 u/L
same,BLOOD UREA NITROGEN,[3],10 mg/dL
same,CHOLESTEROL,[3],77.67 mg/dL
same,CREATINE PHOSPHOKINASE,[3],213.33 u/L
same,CREATININE,[3],0.67 mg/dL
same,GLUCOSE,[3],176 mg/dL
same,PHOSPHORUS,[3],11.23 mg/dL
same,POTASSIUM,[3],6.27 MEQ/L
same,SODIUM,[3],148.33 MEQ/L
same,TOTAL BILIRUBIN,[3],0.4 mg/dL
same,TOTAL PROTEIN,[3],6.03 G/DL
same,BASOPHIL,[4],0%
same,EOSINOPHIL,[4],0%
same,ERYTHROCYTE COUNT,[4],5.75 x10E6/uL
same,HEMATOCRIT,[4],35.53%
same,HEMOGLOBIN,[4],14.07 G/DL
same,LEUKOCYTE COUNT,[4],13.03 x10E3/uL
same,LYMPHOCYTE,[4],79.67%
same,MEAN CORPUSCULAR HEMOGLOBIN,[4],24.47 pg
same,MEAN CORPUSCULAR HEMOGLOBIN CONCENTRATION,[4],39.6 G/DL
same,MEAN CORPUSCULAR VOLUME,[4],61.83 fL
same,MONOCYTE,[4],3.67%
same,NEUTROPHIL,[4],16.67%
same,PLATELET COUNT,[4],778.33 x10E3/uL
same,ALANINE AMINOTRANSFERASE,[4],35.67 u/L
same,ALBUMIN,[4],3.63 G/DL
same,ALKALINE PHOSPHATASE,[4],336.33 u/L
same,ASPARTATE AMINOTRANSFERASE,[4],78.67 u/L
same,BLOOD UREA NITROGEN,[4],12 mg/dL
same,CHOLESTEROL,[4],67.33 mg/dL
same,CREATINE PHOSPHOKINASE,[4],151.67 u/L
same,CREATININE,[4],0.57 mg/dL
same,GLUCOSE,[4],177 mg/dL
same,PHOSPHORUS,[4],10.23 mg/dL
same,POTASSIUM,[4],6.03 MEQ/L
same,SODIUM,[4],149 MEQ/L
same,TOTAL BILIRUBIN,[4],0.47 mg/dL
same,TOTAL PROTEIN,[4],5.83 G/DL
same,BASOPHIL,[5],0%
same,EOSINOPHIL,[5],1%
same,ERYTHROCYTE COUNT,[5],5.53 x10E6/uL
same,HEMATOCRIT,[5],33.77%
same,HEMOGLOBIN,[5],13.73 G/DL
same,LEUKOCYTE COUNT,[5],11.03 x10E3/uL
same,LYMPHOCYTE,[5],85%
same,MEAN CORPUSCULAR HEMOGLOBIN,[5],24.87 pg
same,MEAN CORPUSCULAR HEMOGLOBIN CONCENTRATION,[5],40.77 G/DL
same,MEAN CORPUSCULAR VOLUME,[5],61 fL
same,MONOCYTE,[5],2%
same,NEUTROPHIL,[5],12%
same,PLATELET COUNT,[5],1053.67 x10E3/uL
same,ALANINE AMINOTRANSFERASE,[5],32.33 u/L
same,ALBUMIN,[5],3.57 G/DL
same,ALKALINE PHOSPHATASE,[5],308 u/L
same,ASPARTATE AMINOTRANSFERASE,[5],56.33 u/L
same,BLOOD UREA NITROGEN,[5],11.67 mg/dL
same,CHOLESTEROL,[5],75.33 mg/dL
same,CREATINE PHOSPHOKINASE,[5],161.67 u/L
same,CREATININE,[5],0.6 mg/dL
same,GLUCOSE,[5],178 mg/dL
same,PHOSPHORUS,[5],11.23 mg/dL
same,POTASSIUM,[5],6.57 MEQ/L
same,SODIUM,[5],148 MEQ/L
same,TOTAL BILIRUBIN,[5],0.4 mg/dL
same,TOTAL PROTEIN,[5],5.63 G/DL
same,BASOPHIL,[6],0%
same,EOSINOPHIL,[6],0.33%
same,ERYTHROCYTE COUNT,[6],6.36 x10E6/uL
same,HEMATOCRIT,[6],37.73%
same,HEMOGLOBIN,[6],15.4 G/DL
same,LEUKOCYTE COUNT,[6],11.63 x10E3/uL
same,LYMPHOCYTE,[6],91.33%
same,MEAN CORPUSCULAR HEMOGLOBIN,[6],24.37 pg
same,MEAN CORPUSCULAR HEMOGLOBIN CONCENTRATION,[6],41 G/DL
same,MEAN CORPUSCULAR VOLUME,[6],59.37 fL
same,MONOCYTE,[6],1.33%
same,NEUTROPHIL,[6],7%
same,PLATELET COUNT,[6],1065 x10E3/uL
same,ALANINE AMINOTRANSFERASE,[6],27 u/L
same,ALBUMIN,[6],3.9 G/DL
same,ALKALINE PHOSPHATASE,[6],323 u/L
same,ASPARTATE AMINOTRANSFERASE,[6],65.67 u/L
same,BLOOD UREA NITROGEN,[6],15.33 mg/dL
same,CHOLESTEROL,[6],71 mg/dL
same,CREATINE PHOSPHOKINASE,[6],141.33 u/L
same,CREATININE,[6],0.6 mg/dL
same,GLUCOSE,[6],169.33 mg/dL
same,PHOSPHORUS,[6],10.37 mg/dL
same,POTASSIUM,[6],6.4 MEQ/L
same,SODIUM,[6],151.67 MEQ/L
same,TOTAL BILIRUBIN,[6],0.43 mg/dL
same,TOTAL PROTEIN,[6],6.23 G/DL

# Source: ChEMBL document CHEMBL3885881, “DrugMatrix”
